Measurements: ChEMBL document CHEMBL1909046, “DrugMatrix in vitro pharmacology data”

Experiments:
[1] = target: T1, Alpha-2C adrenergic receptor (Homo sapiens, UniProt P18825); experiment: DRUGMATRIX: Adrenergic Alpha-2C radioligand binding (ligand: [3H] MK-912); format: cell membranes, Sf9, Membrane; conditions: sf9
T1 sequence (P18825 whole entry): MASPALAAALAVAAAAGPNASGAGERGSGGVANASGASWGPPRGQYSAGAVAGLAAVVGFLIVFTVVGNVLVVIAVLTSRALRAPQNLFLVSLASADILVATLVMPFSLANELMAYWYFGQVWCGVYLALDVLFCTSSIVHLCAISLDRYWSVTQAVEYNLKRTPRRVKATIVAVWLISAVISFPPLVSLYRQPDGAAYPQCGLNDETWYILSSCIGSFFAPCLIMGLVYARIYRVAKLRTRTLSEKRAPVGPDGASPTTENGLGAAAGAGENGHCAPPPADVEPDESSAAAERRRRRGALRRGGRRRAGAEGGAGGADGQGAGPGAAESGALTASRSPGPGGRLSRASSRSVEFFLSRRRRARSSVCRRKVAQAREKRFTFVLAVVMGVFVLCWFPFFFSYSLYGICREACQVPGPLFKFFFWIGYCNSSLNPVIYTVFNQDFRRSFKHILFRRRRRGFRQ

[2] = target: T2, Type-2 angiotensin II receptor (Homo sapiens, UniProt P50052); format: cell-based; conditions: cho-k1; note: in other assays of this panel Not Active means under 50% inhibition at 10 µM
T2 sequence (P50052 whole entry): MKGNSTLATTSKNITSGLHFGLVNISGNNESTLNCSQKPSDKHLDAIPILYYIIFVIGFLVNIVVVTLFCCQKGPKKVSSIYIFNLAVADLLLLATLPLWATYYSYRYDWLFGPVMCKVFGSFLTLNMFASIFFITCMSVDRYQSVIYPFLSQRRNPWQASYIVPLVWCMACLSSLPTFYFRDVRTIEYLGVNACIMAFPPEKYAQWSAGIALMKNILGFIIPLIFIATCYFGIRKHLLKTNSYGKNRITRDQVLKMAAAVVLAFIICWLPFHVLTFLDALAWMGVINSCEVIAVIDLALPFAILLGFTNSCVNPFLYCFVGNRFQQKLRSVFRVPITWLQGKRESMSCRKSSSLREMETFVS

Mu-type opioid receptor = Mu-type opioid receptor (Homo sapiens, UniProt P35372); experiment: DRUGMATRIX: Opiate mu (OP3, MOP) radioligand binding (ligand: [3H] Diprenorphine); format: cell membranes, CHO-K1, Membrane; conditions: Not Active = under 50% inhibition at 10 µM
Nitric oxide synthase 1 = Nitric oxide synthase 1 (Rattus norvegicus, UniProt P29476); format: tissue-based, Cerebellum; note: in other assays of this panel Not Active means under 50% inhibition at 10 µM
[3] = target: T3, C-X-C chemokine receptor type 2 (Homo sapiens, UniProt P25025); format: cell membranes, Membrane; conditions: cho-k1; note: in other assays of this panel Not Active means under 50% inhibition at 10 µM
T3 sequence (P25025 whole entry): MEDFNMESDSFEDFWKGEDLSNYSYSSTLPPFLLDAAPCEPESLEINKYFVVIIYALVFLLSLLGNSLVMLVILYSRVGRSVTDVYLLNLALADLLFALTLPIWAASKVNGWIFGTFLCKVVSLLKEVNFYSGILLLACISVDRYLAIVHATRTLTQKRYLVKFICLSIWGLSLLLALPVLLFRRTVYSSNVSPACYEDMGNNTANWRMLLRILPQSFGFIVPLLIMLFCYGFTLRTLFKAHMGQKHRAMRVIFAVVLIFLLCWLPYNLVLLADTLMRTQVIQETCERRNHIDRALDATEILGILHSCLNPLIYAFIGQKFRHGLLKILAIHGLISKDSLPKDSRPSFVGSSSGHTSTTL

[4] = target: T4, 5-hydroxytryptamine receptor 2C (Homo sapiens, UniProt P28335); experiment: DRUGMATRIX: Serotonin (5-Hydroxytryptamine) 5-HT2C radioligand binding (ligand: [3H] Mesulergine); format: cell membranes, CHO-K1, Membrane; conditions: Not Active = under 50% inhibition at 10 µM
T4 sequence (P28335 whole entry): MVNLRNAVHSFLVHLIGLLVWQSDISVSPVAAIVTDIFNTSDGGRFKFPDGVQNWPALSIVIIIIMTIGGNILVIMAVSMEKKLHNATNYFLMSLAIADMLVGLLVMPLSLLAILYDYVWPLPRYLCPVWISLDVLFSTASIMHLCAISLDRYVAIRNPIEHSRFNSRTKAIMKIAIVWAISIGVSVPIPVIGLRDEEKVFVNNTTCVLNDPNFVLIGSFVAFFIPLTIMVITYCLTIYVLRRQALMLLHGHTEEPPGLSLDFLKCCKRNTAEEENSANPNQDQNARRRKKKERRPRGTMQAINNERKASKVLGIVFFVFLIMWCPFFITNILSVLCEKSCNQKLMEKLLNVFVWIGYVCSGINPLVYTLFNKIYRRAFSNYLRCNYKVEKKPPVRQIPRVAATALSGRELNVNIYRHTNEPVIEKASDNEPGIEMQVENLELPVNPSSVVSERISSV

Sequence of Nitric oxide synthase 1 (P29476 whole entry): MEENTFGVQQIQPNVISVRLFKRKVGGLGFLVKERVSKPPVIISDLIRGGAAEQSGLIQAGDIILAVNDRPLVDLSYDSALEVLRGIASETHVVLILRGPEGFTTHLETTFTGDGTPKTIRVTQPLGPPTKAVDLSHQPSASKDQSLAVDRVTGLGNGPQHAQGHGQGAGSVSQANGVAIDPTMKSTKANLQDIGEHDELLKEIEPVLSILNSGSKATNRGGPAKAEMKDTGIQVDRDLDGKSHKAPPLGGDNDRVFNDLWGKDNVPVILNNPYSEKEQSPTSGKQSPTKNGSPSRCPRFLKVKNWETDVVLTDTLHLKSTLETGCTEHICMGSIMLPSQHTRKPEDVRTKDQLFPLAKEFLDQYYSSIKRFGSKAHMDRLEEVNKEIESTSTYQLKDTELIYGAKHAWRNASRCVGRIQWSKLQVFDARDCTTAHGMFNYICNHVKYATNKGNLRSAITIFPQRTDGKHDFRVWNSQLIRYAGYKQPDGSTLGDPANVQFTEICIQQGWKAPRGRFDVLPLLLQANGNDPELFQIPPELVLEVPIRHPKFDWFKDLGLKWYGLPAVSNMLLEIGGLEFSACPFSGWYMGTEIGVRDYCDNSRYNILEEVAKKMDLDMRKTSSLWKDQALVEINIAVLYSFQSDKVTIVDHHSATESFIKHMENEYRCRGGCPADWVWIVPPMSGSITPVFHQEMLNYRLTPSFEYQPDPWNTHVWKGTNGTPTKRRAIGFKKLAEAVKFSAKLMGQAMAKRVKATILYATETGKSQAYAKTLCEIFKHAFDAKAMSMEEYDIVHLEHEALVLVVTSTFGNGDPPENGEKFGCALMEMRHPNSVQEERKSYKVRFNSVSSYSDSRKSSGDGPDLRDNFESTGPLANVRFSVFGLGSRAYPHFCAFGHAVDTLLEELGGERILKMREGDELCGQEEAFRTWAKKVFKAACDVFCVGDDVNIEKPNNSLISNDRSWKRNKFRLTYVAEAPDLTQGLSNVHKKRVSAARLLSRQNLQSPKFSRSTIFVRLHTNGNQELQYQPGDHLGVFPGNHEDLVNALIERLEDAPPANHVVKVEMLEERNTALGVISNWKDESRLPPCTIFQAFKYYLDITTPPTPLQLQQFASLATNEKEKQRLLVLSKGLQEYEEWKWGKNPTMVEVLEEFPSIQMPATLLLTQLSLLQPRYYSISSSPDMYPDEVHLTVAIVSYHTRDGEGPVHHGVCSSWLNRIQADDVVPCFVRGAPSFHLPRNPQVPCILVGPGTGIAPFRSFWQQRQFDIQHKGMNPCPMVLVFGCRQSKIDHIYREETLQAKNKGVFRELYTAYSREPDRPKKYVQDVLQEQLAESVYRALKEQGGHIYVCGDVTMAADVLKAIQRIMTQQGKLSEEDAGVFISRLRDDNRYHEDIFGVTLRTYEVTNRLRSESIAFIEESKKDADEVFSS
Sequence of Mu-type opioid receptor (P35372 whole entry): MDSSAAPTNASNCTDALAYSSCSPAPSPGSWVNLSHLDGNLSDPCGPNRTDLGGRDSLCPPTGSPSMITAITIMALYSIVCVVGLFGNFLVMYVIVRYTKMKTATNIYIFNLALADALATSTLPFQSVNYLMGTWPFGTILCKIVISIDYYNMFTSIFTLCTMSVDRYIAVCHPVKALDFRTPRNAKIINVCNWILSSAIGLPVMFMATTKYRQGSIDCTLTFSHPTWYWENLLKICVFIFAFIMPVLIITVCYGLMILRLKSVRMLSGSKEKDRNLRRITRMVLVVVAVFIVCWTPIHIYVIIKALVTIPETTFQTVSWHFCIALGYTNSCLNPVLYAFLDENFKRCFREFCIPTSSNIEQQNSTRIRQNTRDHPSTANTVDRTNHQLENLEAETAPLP

Row | Compound | IC50 [1] | IC50 [2] | IC50 (Mu-type opioid receptor; cho-k1) | IC50 (Nitric oxide synthase 1) | IC50 [3] | IC50 ([4]; cho-k1) | IC50 ([4]; read-out: IC50) | Ki ([4]; read-out: Ki) | IC50 ([1]; read-out: IC50) | Ki ([1]; read-out: Ki) | Ki [2] | Ki (Nitric oxide synthase 1) | Ki [3] | Ki ([4]; cho-k1) | Ki (Mu-type opioid receptor) | IC50 (Mu-type opioid receptor; read-out: IC50) | Ki [1]
1 | CCS(=O)(=O)CCn1c([N+](=O)[O-])cnc1C [TINIDAZOLE] | Not Active | Not Active | Not Active | Not Active | Not Active | Not Active |  |  |  |  |  |  |  |  |  |  | 
2 | Nc1nc2c(c(=O)[nH]1)N(C=O)C(CNc1ccc(C(=O)N[C@@H](CCC(=O)O)C(=O)O)cc1)CN2 (some centres undefined) [LEUCOVORIN] | Not Active | Not Active | Not Active | Not Active | Not Active | Not Active |  |  |  |  |  |  |  |  |  |  | 
3 | CC(=O)O[C@H]1C[C@@H]2CC[C@@H]3[C@H](CC[C@@]4(C)[C@H]3C[C@H]([N+]3(C)CCCCC3)[C@@H]4OC(C)=O)[C@@]2(C)C[C@@H]1N1CCCCC1.[Br-] [VECURONIUM BROMIDE] | Not Active | Not Active | Not Active | Not Active | Not Active | Not Active |  |  |  |  |  |  |  |  |  |  | 
4 | C[C@@H](O)[C@H]1C(=O)N2C(C(=O)O)=C(S[C@@H]3CN[C@H](C(=O)N(C)C)C3)[C@H](C)[C@H]12 [MEROPENEM] | Not Active | Not Active | Not Active | Not Active | Not Active | Not Active |  |  |  |  |  |  |  |  |  |  | 
5 | Cc1cn([C@H]2C[C@H](N=[N+]=[N-])[C@@H](CO)O2)c(=O)[nH]c1=O [ZIDOVUDINE] | Not Active | Not Active | Not Active | Not Active | Not Active | Not Active |  |  |  |  |  |  |  |  |  |  | 
6 | COc1cc(N)nc2[nH]c(-c3ccc(F)cc3)c(-c3ccncc3)c12 | Not Active | Not Active | Not Active | Not Active | Not Active |  | 1240 nM | 648 nM |  |  |  |  |  |  |  |  | 
7 | CN1C2CCCC1CC(NC(=O)c1nn(C)c3ccccc13)C2 (centres undefined) [GRANISETRON] | Not Active | Not Active | Not Active | Not Active | Not Active | Not Active |  |  |  |  |  |  |  |  |  |  | 
8 | THIMEROSAL |  | Not Active |  | Not Active | Not Active | Not Active |  |  | 5040 nM | 732 nM | Not Active | Not Active | Not Active | Not Active |  |  | 
9 | C[C@]12CC[C@H]3[C@@H](CCC4=CC(=O)CC[C@@]43C)[C@@H]1CC[C@@H]2O [TESTOSTERONE] | Not Active | Not Active | Not Active | Not Active | Not Active | Not Active |  |  |  |  |  |  |  |  |  |  | 
10 | CNS(=O)(=O)Cc1ccc2[nH]cc(CCN(C)C)c2c1 | Not Active | Not Active | Not Active | Not Active | Not Active | Not Active |  |  |  |  |  |  |  |  |  |  | 
11 | CO[C@H]1C[C@@H]2CC[C@@H](C)[C@@](O)(O2)C(=O)C(=O)N2CCCC[C@H]2C(=O)O[C@H]([C@H](C)C[C@@H]2CC[C@@H](O)[C@H](OC)C2)CC(=O)[C@H](C)/C=C(\C)[C@@H](O)[C@@H](OC)C(=O)[C@H](C)C[C@H](C)/C=C/C=C/C=C/1C [SIROLIMUS] | Not Active | Not Active | Not Active | Not Active | Not Active | Not Active |  |  |  |  |  |  |  |  |  |  | 
12 | CC(C)OC(=O)C(C)(C)Oc1ccc(C(=O)c2ccc(Cl)cc2)cc1 [FENOFIBRATE] | Not Active | Not Active | Not Active | Not Active | Not Active |  |  |  |  |  |  |  |  |  |  |  | 
13 | CN(CCOc1ccc(CC2SC(=O)NC2=O)cc1)c1ccccn1 (centres undefined) [ROSIGLITAZONE] | Not Active | Not Active | Not Active | Not Active | Not Active | Not Active |  |  |  |  |  |  |  |  |  |  | 
14 | C=C(C)[C@H]1Cc2c(ccc3c2O[C@@H]2COc4cc(OC)c(OC)cc4[C@@H]2C3=O)O1 [ROTENONE] | Not Active | Not Active |  | Not Active | Not Active | Not Active |  |  |  |  |  |  |  |  |  |  | 
15 | Nc1ccc(S(=O)(=O)Nc2nccs2)cc1 [SULFATHIAZOLE] | Not Active | Not Active | Not Active | Not Active | Not Active | Not Active |  |  |  |  |  |  |  |  |  |  | 
16 | OCCN1CCN(CCCN2c3ccccc3Sc3ccc(C(F)(F)F)cc32)CC1 [FLUPHENAZINE] |  | Not Active |  | Not Active | Not Active |  |  |  |  |  |  |  |  |  | 8420 nM | 20700 nM | 
17 | COc1ccc(CN2CCNCC2)c(OC)c1OC [TRIMETAZIDINE] | Not Active | Not Active | Not Active | Not Active | Not Active | Not Active |  |  |  |  |  |  |  |  |  |  | 
18 | CC[C@@H](CO)NC(=O)[C@@H]1C=C2c3cccc4c3c(cn4C)C[C@H]2N(C)C1 [METHYSERGIDE] | Not Active | Not Active | Not Active | Not Active | Not Active |  | 2.09 nM | 1.09 nM |  |  |  |  |  |  |  |  | 
19 | COc1cc(C(=O)NS(=O)(=O)c2ccccc2C)ccc1Cc1cn(C)c2ccc(NC(=O)OC3CCCC3)cc12 [ZAFIRLUKAST] | Not Active | Not Active | Not Active | Not Active | Not Active | Not Active |  |  |  |  |  |  |  |  |  |  | 
20 | CCCc1nn(C)c2c(=O)[nH]c(-c3cc(S(=O)(=O)N4CCN(C)CC4)ccc3OCC)nc12 | Not Active | Not Active | Not Active | Not Active | Not Active | Not Active |  |  |  |  |  |  |  |  |  |  | 
21 | CN[C@@H]1[C@H](O)[C@H](NC)[C@H]2O[C@@]3(O)C(=O)C[C@@H](C)O[C@H]3O[C@@H]2[C@H]1O [SPECTINOMYCIN] | Not Active | Not Active | Not Active | Not Active | Not Active | Not Active |  |  |  |  |  |  |  |  |  |  | 
22 | CC(=O)Nc1nnc(S(N)(=O)=O)s1 [ACETAZOLAMIDE] | Not Active | Not Active | Not Active | Not Active | Not Active | Not Active |  |  |  |  |  |  |  |  |  |  | 
23 | CCN(CC)CC#CCOC(=O)C(O)(c1ccccc1)C1CCCCC1 (centres undefined) [OXYBUTYNIN] | Not Active | Not Active | Not Active | Not Active | Not Active | Not Active |  |  |  |  |  |  |  |  |  |  | 
24 | CC(C)(C)NC[C@H](O)COc1nsnc1N1CCOCC1 [TIMOLOL] | Not Active | Not Active | Not Active | Not Active | Not Active | Not Active |  |  |  |  |  |  |  |  |  |  | 
25 | O=c1[nH]c2ccccc2n1CCCN1CCC(n2c(=O)[nH]c3cc(Cl)ccc32)CC1 [DOMPERIDONE] |  | Not Active |  | Not Active | Not Active |  |  |  |  |  |  |  |  |  |  |  | 
26 | O=c1n(CCCN2CCN(c3cccc(Cl)c3)CC2)nc2ccccn12 [TRAZODONE] |  | Not Active | Not Active | Not Active | Not Active |  |  |  |  |  |  |  |  |  |  |  | 
27 | STANNOUS FLUORIDE | Not Active | Not Active |  | Not Active | Not Active | Not Active |  |  |  |  | Not Active | Not Active | Not Active | Not Active |  |  | Not Active
28 | O=C(O)C(Cl)(Cl)Cl [TRICHLOROACETIC ACID] | Not Active | Not Active |  | Not Active | Not Active | Not Active |  |  |  |  |  |  |  |  |  |  | 
